{"source": "patent US6525025B2", "about": "“Gamma-ketoacid dipeptides as inhibitors of caspase-3” (Merck Frosst Canada & Co., priority 2000, dated 2003)", "origin": "cited, not measured here", "key": {"caspase-3": {"target": "T1, caspase-3 (Homo sapiens, UniProt P42574)", "T1 sequence (P42574 29-175 limits assumed)": "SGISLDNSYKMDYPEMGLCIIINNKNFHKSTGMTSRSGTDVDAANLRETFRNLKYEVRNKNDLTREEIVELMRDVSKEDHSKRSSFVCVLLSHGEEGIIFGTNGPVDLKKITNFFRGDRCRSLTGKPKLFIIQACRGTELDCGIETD", "T1 sequence (P42574 176-277 limits assumed)": "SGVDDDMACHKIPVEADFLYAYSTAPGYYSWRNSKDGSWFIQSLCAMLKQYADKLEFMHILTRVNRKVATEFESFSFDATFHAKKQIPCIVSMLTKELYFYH"}, "caspase-1": {"target": "T2, caspase-1 (Homo sapiens, UniProt P29466)", "T2 sequence (P29466 120-297 limits assumed)": "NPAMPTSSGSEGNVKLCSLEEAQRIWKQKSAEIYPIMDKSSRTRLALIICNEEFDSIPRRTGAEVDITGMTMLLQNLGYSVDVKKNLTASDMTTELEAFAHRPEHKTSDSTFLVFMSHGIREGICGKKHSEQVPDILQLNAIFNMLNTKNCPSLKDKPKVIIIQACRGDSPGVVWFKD", "T2 sequence (P29466 317-404 limits assumed)": "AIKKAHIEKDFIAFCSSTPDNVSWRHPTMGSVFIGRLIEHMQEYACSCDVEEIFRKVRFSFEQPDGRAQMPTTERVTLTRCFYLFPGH"}}, "data": [{"substance": "Ac-YVAD-CHO", "values": [{"measurement": "Ki", "setting": "caspase-3", "value": 12, "unit": "µM"}, {"measurement": "Ki", "setting": "caspase-1", "value": "< 0.001", "unit": "µM"}]}]}
